Measurements from publication PMC10752971 (Frontiers in Pharmacology, 2023).
Read-outs that look alike come from different tables or passages of the source.

What was measured:
[1] = system: induced pulmonary fibrosis mouse models; set-up: method as in Beck et al., 2020; settings: ref Beck et al., 2020; cited from earlier work
[2] = system: MYLA cells; assay: RT-qPCR of OXTR, CALD1 and MYLK expression in MYLA cells; format: cell-based, human; settings: for OXTR, CALD1, and MYLK expression at 48 h (RT-qPCR): 1 µM PGF2α + 1 µM antagonist vs 1 µM PGF2α; for Expression of OXTR, CALD1, and MYLK (RT-qPCR time series): 1 µM PGF2α + 1 µM antagonist, 1–48 h
[3] = biological target: T1, FP receptor (Homo sapiens, UniProt P43088); assay: [35S]-GTPγS immunoprecipitation assay of Gα-subunit coupling in MYLA cell membranes
T1 sequence (P43088 whole entry): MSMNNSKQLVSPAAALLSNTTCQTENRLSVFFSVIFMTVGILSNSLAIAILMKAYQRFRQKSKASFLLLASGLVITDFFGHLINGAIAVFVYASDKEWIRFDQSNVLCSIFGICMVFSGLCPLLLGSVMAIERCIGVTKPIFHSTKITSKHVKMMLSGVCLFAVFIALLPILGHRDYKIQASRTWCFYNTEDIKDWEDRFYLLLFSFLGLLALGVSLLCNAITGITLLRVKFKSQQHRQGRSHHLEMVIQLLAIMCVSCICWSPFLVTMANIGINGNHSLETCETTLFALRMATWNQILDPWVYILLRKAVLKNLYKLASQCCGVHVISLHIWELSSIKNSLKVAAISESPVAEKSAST
Experimental: Tissue preparation: MYLA cells were grown to 95%–100% confluency in a T175 flask, lifted, and pelleted via standard cell culture techniques. The harvested cells were homogenised in ice-cold lysis buffer (composition (mM): HEPES, 20; EDTA, 1; MgCl2, 2; KCl, 10; DTT, 2; pH, 7.4) using a Coleman handheld homogeniser. The homogenates were cleared (1,000×g, 10 min, 4°C) and membranes were collected by centrifugation (16,100×g, 90 min, 4°C). The membranes were resuspended in freezing buffer [composition (mM): HEPES, 10; MgCl2, 1; DTT, 1; pH, 7.4], where the protein concentration was adjusted to 1.5 mg/mL and rapidly frozen in liquid nitrogen. The membranes were stored at −80°C until required.
Radioligand binding assay: 75 μg of membrane was added to 50 μL of assay buffer [composition (mM): HEPES, 10; MgCl2, 10; NaCl, 100; pH, 7.4] containing 1 nM [^35S]-GTPγS (1,250 Ci/mmol) and 10 μM GDP, with or without agonist and antagonists as required, and incubated at 30°C for 2 min. Non-specific binding (NSB) was determined by the inclusion of 10 μM unlabelled GTPγS. Incubation was terminated by the addition of 900 μL of ice-cold assay buffer, and the samples were transferred to ice. The cell membrane was recovered from the reaction mixture by centrifugation (16,100×g, 6 min, 4°C), and the supernatant was removed by aspiration. Membrane pellets were solubilised by the addition of 50 μL of ice-cold solubilisation buffer [composition (mM): Tris-HCl, 100; NaCl, 200; EDTA, 1; IGEPAL CA 630, 1.25% (v/v); 0.2% (w/v) SDS; pH, 7.4] and vortex mixing. […] The beads were washed and pelleted thrice with 500 μL of solubilisation buffer (less SDS) before re-suspension in Pico-Flour^TM scintillation cocktail (Perkin Elmer, Buckinghamshire, United Kingdom) where [^35S]-GTPγS was determined by standard liquid scintillation counting methods.
Data analysis: Specific binding was determined by CPM values and expressed as a % increase over basal (unstimulated), and plotted using the GraphPad Prism 9 software. […]

[4] = biological target: T1, FP receptor; assay: Antagonist Ca2+ assay: FP antagonists on PGF2α-stimulated Ca2+ transients in MYLA cells; format: cell-based; set-up: endogenous in cells; host or cells: MYLA cells (conditionally immortalised human myometrial cells; hTERT + temperature-sensitive SV40 large T)
Experimental: (§1) MYLA cells were grown to 95%–100% confluency in 3 cm^2 glass-bottom dishes (MatTek Corporation, MA, United States). The cells were serum starved for 24–48 h with 2% DMEM/F12 media and then incubated with 5 μM Calbryte^TM 520 AM (Stratech Scientific Ltd., Ely, United Kingdom) for 60 min at 37°C in a 95%/5% air/CO2-humidified environment, followed by 15 min at room temperature in the dark. […] The plates were then loaded on the stage of an Olympus IX81 inverted microscope and visualised with a 10x objective lens. Temperatures were maintained at 37°C. Calbryte^TM 520 AM was excited at Ex/Em: 490/525 nm. The cells were imaged for 3 min to allow any initial LED-induced Ca^2+ signalling to subside. […] Fluorescence was captured at a rate of one frame per second for 3 min, with agonist/antagonist injections occurring after a 30-s basal period.
(§2) Data analysis: Videos were visualised, and data were analysed using ImageJ, the image analysis software. […] The frequency of Ca^2+ oscillations was calculated as the average number of oscillations over time in seconds (Hz). All data were visualised using the GraphPad Prism 9 software.
(§3) Experiments were repeated on MYLA cells, where N represents the number of biological repeats.

[5] = system: transfected HEK-293 cell lines; set-up: method as in Martos et al., 2016; settings: ref Martos et al., 2016; cited from earlier work
[6] = system: MYLA cells; assay: RNA-Seq time series of marker gene expression in MYLA cells; format: cell-based, human
Experimental: The MYLA cells were seeded into a T75 flask and allowed to grow to 95%–100% confluency. […] The cells were harvested at T = 1, 3, 6, 9, 12, 24, and 48 h, pelleted (1,200 rpm, 5 min, 4°C), and snap frozen on dry ice before storage at −80°C.
RNA was extracted from pelleted cells using the GenElute^TM Total RNA Purification Kit (Sigma Aldrich, Poole, United Kingdom) according to the manufacturer’s instructions. RNA concentration and purity were determined using a NanoDrop 1000 Spectrophotometer (Thermo Fisher Scientific, Loughborough, United Kingdom). All RNA samples were stored at −80°C until use.
RNA quality was verified using a Bioanalyzer according to the manufacturer’s instructions (Eukaryote Total RNA Nano, Agilent). Illumina TruSeq RNA libraries were prepared and sequenced using a NextSeq 500 with a high-output 75 bp cycle cartridge (Illumina, Cambridge, United Kingdom) by the University of Warwick Genomic Facility.
bcl2fastq v2.20.0.422 was used for demultiplexing each sample. FastQC v0.11.9 was used to quality control check the demultiplexed FastQC files, and MultiQC v1.9 consolidated the QC reports. Reads were aligned to the human reference genome build GRCh38 release 86 using STAR version 2.7.9a. The number of reads mapped to each genomic feature was calculated with featureCounts v2.0.1. The counts were imported into R Studio and analysed with the DESeq2 package.
Data analysis: TPM data were processed and analysed using R Studio and then plotted using the GraphPad 9 software.
The experiments were technical triplicates of biological triplicate samples taken from seven time points. The data in Figures 8–10 were analysed by two-way ANOVA and post hoc Dunnett’s multiple comparison test comparing treatments to the ethanol vehicle.

[7] = biological target: T1, FP receptor; settings: MYLA cells
Experimental: as §1, §2, §3

[8] = 300 pM–10 µM antagonist in the presence of 1 µM PGF2α, N = 3, read-out: IC50, effect on AUC
[9] = 300 pM–10 µM antagonist in the presence of 1 µM PGF2α, N = 3, read-out: IC50, effect on Fmax
[10] = 300 pM–10 µM antagonist in the presence of 1 µM PGF2α, N = 3, read-out: IC50, effect on frequency of Ca2+ oscillations
[11] = four-parameter fit, bottom constrained to 0
[12] = normalised to averaged ionomycin Fmax

Structure (SMILES) | IC50 [4, 8] | IC50 [4, 9] | IC50 [4, 10] | HillSlope ± SD, effect on AUC ([4]; in the presence of 1 µM PGF2α) | HillSlope ± SD, effect on Fmax ([4]; in the presence of 1 µM PGF2α) | HillSlope ± SD, effect on frequency ([4]; in the presence of 1 µM PGF2α) | also measured
Cc1c(N2CCCC2)nc2ccc(Br)cc2c1C(=O)NC[C@H](CCC(=O)O)c1ccccc1Cl [BAY-6672] | – | – | – | – | – | – | Effects in induced pulmonary fibrosis mouse models [1]: anti-inflammatory and antifibrotic effects
Cc1c(-c2ccccc2)nc2ccc(Br)cc2c1C(=O)NCC(CCC(=O)O)c1ccccc1Cl (stereo not drawn) [Compound 39/40, 5-(6-bromo-3-methyl-2-phenylquinoline-4-carboxamido)-4-(2-chlorophenyl) pentanoic acid] | 0.09 µM | 0.284 µM | 0.154 µM | −0.98 ± 0.27 | −0.54 ± 1.63 | −2.00 ± 0.56 | OXTR, CALD1, and MYLK expression at 48 h (RT-qPCR) [2]: significant decrease; Expression of OXTR, CALD1, and MYLK (RT-qPCR time series) [2]: reduced; PGF2α-stimulated coupling to Gαq/11 ([3]; 1 µM compound 39/40 + 1 µM PGF2α, 2 min): reversed
Cc1c(N2CCCC2)nc2ccc(Br)cc2c1C(=O)NCC(CCC(=O)O)c1ccccc1Cl (stereo not drawn) [Compound 46/47, 5-(6-bromo-3-methyl-2-(pyrrolidin-1-yl)quinoline-4-carboxamido)-4-(2-chlorophenyl)-pentanoic acid] | – | – | – | −1.37 ± 0.68 | −1.02 ± 0.40 | −0.69 ± 0.30 | –
CC(C)Cn1ncc2cc(Cl)cc(Cn3nc(N)c4cc(C(=O)O)ccc43)c21 [Compound 68, 3-amino-1-((5-chloro-1-isobutyl-1H-indazol-7-yl)methyl)-1H-indazole-5-carboxylic acid] | 0.175 µM | 0.194 µM | 0.978 µM | −0.44 ± 0.19 | −0.47 ± 0.19 | −0.49 ± 0.17 | IC50 ([4]; in the presence of 1 µM PGF2α, N = 3, read-out: pIC50 ± SD, effect on AUC (converted)): 0.0891 µM; Potency in FLIPR functional assays [5]: potent
O=C(N[C@H](c1ccc(F)cc1)[C@H]1CCS(=O)(=O)C1)[C@@H]1CCN1S(=O)(=O)c1ccc(-c2cccnc2)cc1 [Compound N582707, (S)-N-((S)-((R)-1,1-dioxidotetrahydrothiophen-3-yl)(4-fluorophenyl)methyl)-1-((4-(pyridin-3-yl)phenyl)sulfonyl)azetidine-2-carboxamide] | 0.0504 µM | 0.0213 µM | 0.0221 µM | – | −0.49 ± 0.20 | −0.55 ± 0.17 | OXTR, CALD1, and MYLK expression at 48 h (RT-qPCR) [2]: significant decrease; Expression of OXTR, CALD1, and MYLK (RT-qPCR time series) [2]: reduced; Expression of fibroblast marker genes (DCN, FBLN1, LOXL1, PDGFRA) ([6]; 1 µM PGF2α + 1 µM FP antagonist, up to 48 h): increased the expression; IC50 ([4]; in the presence of 1 µM PGF2α, N = 3, read-out: pIC50 ± SD, effect on frequency of Ca2+ oscillations (converted)): 0.0219 µM
O=C(N[C@@H](CCO)c1ccc(F)cc1)[C@@H]1SCCN1S(=O)(=O)c1ccc(-c2ccccc2)cc1 [OBE002, [(S)-3-(biphenyl-4-sulfonyl)-thiazolidine-2-carboxylic acid [(S)-1-(4-fluorophenyl)-3-hydroxy-propyl]-amide]] | 0.18 µM | 0.0783 µM | 1.98 µM | −0.41 ± 0.17 | −0.38 ± 0.15 | −0.36 ± 0.19 | pIC50 ± SD, effect on Fmax ([4]; in the presence of 1 µM PGF2α, N = 3): 7.11 ± 0.68
CCCCC[C@H](O)/C=C/[C@@H]1[C@@H](C/C=C\CCCC(=O)O)[C@@H](O)C[C@H]1O [PGF2α, prostaglandin F2α] | – | – | – | – | – | – | Effect on Fmax, AUC and frequency of intracellular Ca2+ oscillations compared to basal ([7]; 300 pM to 10 µM PGF2α): concentration-dependent increase; HillSlope ± SEM, AUC [7, 11]: 1.06 ± 0.45; HillSlope ± SEM, Fmax [7, 11]: 0.91 ± 0.28; HillSlope ± SEM, Frequency [7, 11]: 0.88 ± 0.33; Emax ± SEM, Frequency ([7]; frequency of Ca2+ oscillations): 0.01 ± 0.01; Emax ± SEM, AUC [7, 12]: 1.50 ± 0.14; Emax ± SEM, Fmax [7, 12]: 0.14 ± 0.01; [35S]-GTPγS binding to Gαq/11 ([3]; 1 µM PGF2α vs basal, 2 min): significantly increased; Gαs and Gαi coupling ([3]; stimulation with PGF2α): no effect; Expression of key genes involved in labour such as OXTR (also IL6, IL11) ([6]; 1 µM PGF2α vs vehicle, 1–48 h): upregulated; Expression of smooth muscle marker genes (ACTA2, CALD1, CNN1, COL4A1, COL4A2, MYLK, MYOCD, TAGLN, TGFB2, TGFB3) ([6]; 1 µM PGF2α, up to 48 h): increased expression
